#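 1) Cells in 96-well plates. 2) Compound, 48 h, 5 concentrations. 3) Linear interpolation between surrounding doses. 4) Unreached endpoint = highest concentration. GI50 = concentration required for 50% inhibition of growth.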 The source made the active and inactive calls. Cut-off read from the data, not from the text of the source: active = GI50 up to about 1.1 µM and inactive = higher.
# Columns and labels:
# Test in all cases: NCI tumour cell line growth inhibition, 48 h
# RPMI-8226 = system: RPMI-8226
# OVCAR-5 = system: OVCAR-5
# A498 = system: A498
# NCI/ADR-RES = system: NCI/ADR-RES
# Hs-578T = system: Hs-578T
# SK-OV-3 = system: SK-OV-3
# OVCAR-3 = system: OVCAR-3
# MDA-N = system: MDA-N
# DU-145 = system: DU-145
# RXF 393 = system: RXF 393
# OVCAR-8 = system: OVCAR-8
# CCRF-CEM = system: CCRF-CEM
# NCI-H460 = system: NCI-H460
# HT-29 = system: HT-29
# SF-295 = system: SF-295
# M14 = system: M14
# TK-10 = system: TK-10
# ACHN = system: ACHN
# SK-MEL-5 = system: SK-MEL-5
# CAKI-1 = system: CAKI-1
Structure (SMILES),GI50 (RPMI-8226),GI50 (OVCAR-5),GI50 (A498),GI50 (NCI/ADR-RES),GI50 (Hs-578T),GI50 (SK-OV-3),GI50 (OVCAR-3),GI50 (MDA-N),GI50 (DU-145),GI50 (RXF 393),GI50 (OVCAR-8),GI50 (CCRF-CEM),GI50 (NCI-H460),GI50 (HT-29),GI50 (SF-295),GI50 (M14),GI50 (TK-10),GI50 (ACHN),GI50 (SK-MEL-5),GI50 (CAKI-1)
CN[C@@H]1C[C@H]2O[C@@](C)([C@@H]1OC)n1c3ccccc3c3c4c(c5c6ccccc6n2c5c31)C(=O)N[C@@H]4O,0.658 µM (active),0.015 µM (active),< 0.0129 µM (active),0.0395 µM (active),0.00454 µM (active),0.0267 µM (active),0.043 µM (active),0.0574 µM (active),0.0254 µM (active),< 0.0116 µM (active),0.0668 µM (active),0.0165 µM (active),0.04 µM (active),0.125 µM (active),0.0241 µM (active),0.0255 µM (active),–,–,–,–
COc1cccc(C2c3cc4c(cc3OC(N3CCCC3)C2C)OCO4)c1O (stereo unspecified),4.23 µM (inactive),11.3 µM (inactive),4.89 µM (inactive),3.7 µM (inactive),3.04 µM (inactive),4.36 µM (inactive),2.77 µM (inactive),1.64 µM (inactive),4.41 µM (inactive),3.58 µM (inactive),7.55 µM (inactive),4.69 µM (inactive),4.6 µM (inactive),3.32 µM (inactive),3.51 µM (inactive),3.18 µM (inactive),3.99 µM (inactive),6.59 µM (inactive),3.38 µM (inactive),6.32 µM (inactive)
COc1ccc(/C=C/c2ccnc3ccccc23)c(OC)c1,7.33 µM (inactive),> 10 µM (inactive),7.87 µM (inactive),3.86 µM (inactive),5.98 µM (inactive),> 10 µM (inactive),> 10 µM (inactive),3.41 µM (inactive),> 10 µM (inactive),> 10 µM (inactive),7.52 µM (inactive),4.97 µM (inactive),6.05 µM (inactive),–,6.18 µM (inactive),> 10 µM (inactive),> 10 µM (inactive),9.75 µM (inactive),3.66 µM (inactive),> 10 µM (inactive)
Cc1cc(=O)oc2c(CN(CCCl)CCCl)c(O)ccc12,19.1 µM (inactive),> 100 µM (inactive),62.7 µM (inactive),71.9 µM (inactive),72.3 µM (inactive),–,80.5 µM (inactive),78.2 µM (inactive),36.5 µM (inactive),30.5 µM (inactive),54.6 µM (inactive),2.47 µM (inactive),17.4 µM (inactive),22.7 µM (inactive),11.8 µM (inactive),39.8 µM (inactive),–,13.6 µM (inactive),16.6 µM (inactive),6.78 µM (inactive)
COc1cccc(NC(=O)CC(=O)NN)c1,> 100 µM (inactive),> 100 µM (inactive),> 100 µM (inactive),> 100 µM (inactive),> 100 µM (inactive),> 100 µM (inactive),> 100 µM (inactive),> 100 µM (inactive),> 100 µM (inactive),> 100 µM (inactive),> 100 µM (inactive),> 100 µM (inactive),> 100 µM (inactive),> 100 µM (inactive),> 100 µM (inactive),–,> 100 µM (inactive),> 100 µM (inactive),> 100 µM (inactive),> 100 µM (inactive)
O=C(O)C#Cc1ccc([N+](=O)[O-])cc1,> 100 µM (inactive),> 100 µM (inactive),> 100 µM (inactive),> 100 µM (inactive),> 100 µM (inactive),> 100 µM (inactive),> 100 µM (inactive),> 100 µM (inactive),> 100 µM (inactive),> 100 µM (inactive),> 100 µM (inactive),> 100 µM (inactive),> 100 µM (inactive),> 100 µM (inactive),> 100 µM (inactive),> 100 µM (inactive),> 100 µM (inactive),> 100 µM (inactive),> 100 µM (inactive),> 100 µM (inactive)
C=CC(=O)c1ccc2c(c1)OCCOCCOCCOCCOCCO2,> 38.8 µM (inactive),33.4 µM (inactive),> 100 µM (inactive),25.3 µM (inactive),> 100 µM (inactive),> 100 µM (inactive),19.7 µM (inactive),39.2 µM (inactive),> 100 µM (inactive),17.2 µM (inactive),20 µM (inactive),> 27.5 µM (inactive),> 100 µM (inactive),28.9 µM (inactive),> 100 µM (inactive),20.3 µM (inactive),17 µM (inactive),17.7 µM (inactive),58.7 µM (inactive),34.4 µM (inactive)
COC(=O)c1cnn2c1n[n+]([O-])c1ccccc12,> 100 µM (inactive),> 100 µM (inactive),30.3 µM (inactive),> 100 µM (inactive),> 100 µM (inactive),> 100 µM (inactive),25.9 µM (inactive),> 100 µM (inactive),> 100 µM (inactive),> 100 µM (inactive),> 100 µM (inactive),> 100 µM (inactive),–,> 100 µM (inactive),> 100 µM (inactive),> 100 µM (inactive),> 100 µM (inactive),> 100 µM (inactive),26.9 µM (inactive),> 100 µM (inactive)
CCOC(=O)CCC(NC(=O)c1ccc(Oc2nc3c(N)cc(C(F)(F)F)cc3nc2-c2ccccc2)cc1)C(=O)OCC (stereo unspecified),> 45.9 µM (inactive),–,> 35.5 µM (inactive),1.34 µM (inactive),11.7 µM (inactive),13.5 µM (inactive),3.53 µM (inactive),63.1 µM (inactive),17.3 µM (inactive),0.402 µM (active),1.09 µM (active),> 100 µM (inactive),54.3 µM (inactive),2.43 µM (inactive),11 µM (inactive),47 µM (inactive),14.6 µM (inactive),8.24 µM (inactive),17.6 µM (inactive),2.82 µM (inactive)
C=C(C)[C@H]1C=C[C@@H](OC(=O)c2cccnc2)[C@@]23CO[C@@](C)([C@H](OC(=O)c4cccnc4)[C@@]4(OC(C)=O)C[C@H](C)[C@H](OCCC)[C@@H]4[C@H]2OC(C)=O)[C@H]13,9.95 µM (inactive),> 15 µM (inactive),> 15 µM (inactive),> 15 µM (inactive),13.5 µM (inactive),> 15 µM (inactive),> 15 µM (inactive),10.7 µM (inactive),> 15 µM (inactive),> 15 µM (inactive),> 15 µM (inactive),2.84 µM (inactive),4.94 µM (inactive),–,13.4 µM (inactive),12.7 µM (inactive),> 15 µM (inactive),> 15 µM (inactive),> 15 µM (inactive),> 15 µM (inactive)
CC(=O)NC1C(OCc2ccccc2)OC(CO)C(O)C1OC(C)C(=O)NC(C)C(=O)NC(CCC(=O)NCCCCNc1c2ccccc2nc2cccc([N+](=O)[O-])c12)C(N)=O (stereo unspecified),0.0118 µM (active),0.336 µM (active),0.131 µM (active),0.123 µM (active),0.171 µM (active),0.22 µM (active),0.139 µM (active),0.0232 µM (active),0.00887 µM (active),0.0199 µM (active),0.0228 µM (active),0.114 µM (active),0.00445 µM (active),0.00514 µM (active),0.196 µM (active),0.277 µM (active),0.0202 µM (active),0.0119 µM (active),0.0356 µM (active),0.0325 µM (active)
COC(=O)c1ccc(NCc2cc(O)c3ccccc3c2O)cc1,3.45 µM (inactive),21.6 µM (inactive),19.8 µM (inactive),27.1 µM (inactive),37.7 µM (inactive),16.8 µM (inactive),14.9 µM (inactive),2.15 µM (inactive),15.8 µM (inactive),16.3 µM (inactive),24.4 µM (inactive),2.86 µM (inactive),7.31 µM (inactive),18.7 µM (inactive),7.5 µM (inactive),–,24.4 µM (inactive),10.8 µM (inactive),1.51 µM (inactive),6.17 µM (inactive)
Cc1ccccc1S(=O)(=O)OC1NS(=O)(=O)c2ccccc21 (stereo unspecified),> 100 µM (inactive),> 100 µM (inactive),> 100 µM (inactive),> 100 µM (inactive),> 100 µM (inactive),> 100 µM (inactive),> 100 µM (inactive),> 100 µM (inactive),> 100 µM (inactive),> 100 µM (inactive),> 100 µM (inactive),–,> 100 µM (inactive),> 100 µM (inactive),> 100 µM (inactive),> 100 µM (inactive),> 100 µM (inactive),> 100 µM (inactive),> 100 µM (inactive),> 100 µM (inactive)
Cc1[nH]c(-c2ccccc2)c2nc(N(C)C)oc(=O)c12,> 100 µM (inactive),> 100 µM (inactive),> 100 µM (inactive),> 100 µM (inactive),> 100 µM (inactive),> 100 µM (inactive),–,> 100 µM (inactive),> 100 µM (inactive),> 100 µM (inactive),> 100 µM (inactive),> 100 µM (inactive),> 100 µM (inactive),> 100 µM (inactive),> 100 µM (inactive),> 100 µM (inactive),> 100 µM (inactive),> 100 µM (inactive),> 100 µM (inactive),0.212 µM (active)

# Source: ChEMBL document CHEMBL1201862, “PubChem BioAssay data set” (2004)
